Measurements as given in US9029395B2, “Tetrahydroquinoline derivatives useful as bromodomain inhibitors” (GlaxoSmithKline LLC, priority 2011, dated 2015).
Counter-ions that a name gives are not always drawn.

Tests used:
Bromodomain BRD2 (1-473) = target: T1, Bromodomain BRD2 (1-473) (Homo sapiens, UniProt P25440); experiment: Time Resolved Fluorescence Resonance Energy Transfer (TR-FRET) binding assay, BRD2; details: BRD2 100 nM, acetylated histone peptide 300 nM
T1 construct: Recombinant Human Bromodomains (BRD2 (1-473), BRD3 (1-435) and BRD4 (1-477)); made in house; host or cells: E. coli (pET15b vector)
Experimental: (§1) The binding of the compounds of formula (I) to Bromodomains BRD2, BRD3 and BRD4 was assessed using a time resolved fluorescent resonance energy transfer binding assay, that measures the binding of an acetylated histone peptide to the bromodomain protein.
(§2) The bromodomain protein, histone peptide and a variable concentration of test compound are incubated together to reach thermodynamic equilibrium.
(§3) • H-Ser-Gly-Arg-Gly-Lys(Ac)-Gly-Gly-Lys(Ac)-Gly-Leu-Gly-Lys(Ac)-Gly-Gly-Ala-Lys(Ac)-Arg-His-Gly-Ser-Gly-Ser-Lys(Biotin)-OH. 3TFA
(§4) Protein Production: Recombinant Human Bromodomains (BRD2 (1-473), BRD3 (1-435) and BRD4 (1-477)) were expressed in E. coli cells (in pET15b vector) with a six-His tag at the N-terminal. The His-tagged Bromodomain was extracted from E. coli cells using sonication and purified using a nickel sepharose 6FF column, the proteins were washed and then eluted with 50 mM Tris-Hcl pH8.0. 300 mM NaCl, 1 mM […] and 20 mM Imidazole. Further purification was performed by affinity chromatography on a HisTRAP HP column, eluting with a linear 0-500 mM sodium chloride gradient, over 20 column volumes. Final purification was completed by Superdex 200 prep grade size exclusion column. Purified protein was stored at −80 C in 20 mM HEPES pH 7.5 and 100 mM NaCl. Protein identity was confirmed by peptide mass fingerprinting and predicted molecular weight confirmed by mass spectrometry.
(§5) Protocol for Bromodomain BRD2, 3 and 4 Assays: All assay components were dissolved in buffer composition of 50 mM HEPES pH7.4, 50 mM NaCl and 0.5 mM CHAPS. The final concentration of bromodomain proteins were 100 nM and the histone peptide was 300 nM, these components are premixed and allowed to equilibrate for 1 hour in the dark. 8 μl of this reaction mixture was added to all wells containing 50 nl of various concentrations of test compound or DMSO vehicle (0.5% final) in Greiner 384 well black low volume microtitre plates and incubated in dark for 60 mins at room temperature. 2 μl of detection mixture containing anti-6his XL665 labeled antibody and streptavidin labeled with europium cryptate was added to all wells and a further dark incubation of at least 30 mins was performed. Plates were then read on the Envision platereader, (λex=317 nm, donor λEM=615 nm; acceptor λEM=665 nm; Dichroic LANCE dual). Time resolved fluorescent intensity measurements were made at both emission wavelengths and the ratio of acceptor/donor was calculated and used for data analysis. All data was normalized to the mean of 16 high and 16 low control wells on each plate. A four parameter curve fit of the following form was then applied: y=a+((b−a)/(1+(10^x/10^c)^d)
(§6) Where ‘a’ is the minimum, ‘b’ is the Hill slope, ‘c’ is the pIC50 and ‘d’ is the maximum.

Bromodomain BRD3 (1-435) = target: T2, Bromodomain BRD3 (1-435) (Homo sapiens, UniProt Q15059); experiment: Time Resolved Fluorescence Resonance Energy Transfer (TR-FRET) binding assay, BRD3; details: BRD3 100 nM, acetylated histone peptide 300 nM
T2 construct: Recombinant Human Bromodomains (BRD2 (1-473), BRD3 (1-435) and BRD4 (1-477)); made in house; host or cells: E. coli (pET15b vector)
Experimental: as §1, §2, §3, §4, §5, §6

Bromodomain BRD4 (1-477) = target: T3, Bromodomain BRD4 (1-477) (Homo sapiens, UniProt O60885); experiment: Time Resolved Fluorescence Resonance Energy Transfer (TR-FRET) binding assay, BRD4; details: BRD4 100 nM, acetylated histone peptide 300 nM
T3 construct: Recombinant Human Bromodomains (BRD2 (1-473), BRD3 (1-435) and BRD4 (1-477)); made in house; host or cells: E. coli (pET15b vector)
Experimental: as §1, §2, §3, §4, §5, §6

[1] = test system: LPS induced IL-6 secretion from whole blood; experiment: Measurement of LPS induced IL-6 secretion from whole blood; type: cell-based; details: LPS 200 ng/ml, 24 hours, IL-6 by immunoassay
Experimental: Activation of monocytic cells by agonists of toll-like receptors such as bacterial lipopolysaccharide (LPS) results in production of key inflammatory mediators including IL-6. Such pathways are widely considered to be central to the pathophysiology of a range of auto-immune and inflammatory disorders.
Compounds to be tested are diluted to give a range of appropriate concentrations of which 1 μl of the diluted stocks is added to a 96 well plate. Following addition of whole blood (130 μl) the plates are incubated at 37 degrees (5% CO2) for 30 min before the addition of 10 μl of 2.8 ug/ml LPS, diluted in complete RPMI 1640 (final concentration=200 ng/ml), to give a total volume of 140 ul per well. After further incubation for 24 hours at 37 degrees, 140 μl of PBS are added to each well. The plates are sealed, shaken for 10 minutes and then centrifuged (2500 rpm×10 min). 100 μl of the supernatant are removed and IL-6 levels assayed by immunoassay (typically by MesoScale Discovery technology) either immediately or following storage at −20 degrees. Concentration response curves for each compound was generated from the data and an IC50 value was calculated.

T1 sequence (P25440 1-473): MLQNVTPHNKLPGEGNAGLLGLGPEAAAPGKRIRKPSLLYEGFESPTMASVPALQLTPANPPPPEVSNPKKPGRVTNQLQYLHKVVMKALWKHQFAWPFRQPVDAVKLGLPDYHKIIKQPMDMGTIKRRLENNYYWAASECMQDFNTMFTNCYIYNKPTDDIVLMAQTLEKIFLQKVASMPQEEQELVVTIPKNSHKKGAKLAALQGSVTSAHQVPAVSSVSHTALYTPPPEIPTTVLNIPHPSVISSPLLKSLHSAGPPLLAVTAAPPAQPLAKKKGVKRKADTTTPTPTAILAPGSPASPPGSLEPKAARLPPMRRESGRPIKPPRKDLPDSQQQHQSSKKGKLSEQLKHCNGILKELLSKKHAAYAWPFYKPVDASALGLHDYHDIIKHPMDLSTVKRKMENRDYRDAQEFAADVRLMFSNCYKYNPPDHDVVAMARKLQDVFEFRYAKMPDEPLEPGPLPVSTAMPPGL
T2 sequence (Q15059 1-435): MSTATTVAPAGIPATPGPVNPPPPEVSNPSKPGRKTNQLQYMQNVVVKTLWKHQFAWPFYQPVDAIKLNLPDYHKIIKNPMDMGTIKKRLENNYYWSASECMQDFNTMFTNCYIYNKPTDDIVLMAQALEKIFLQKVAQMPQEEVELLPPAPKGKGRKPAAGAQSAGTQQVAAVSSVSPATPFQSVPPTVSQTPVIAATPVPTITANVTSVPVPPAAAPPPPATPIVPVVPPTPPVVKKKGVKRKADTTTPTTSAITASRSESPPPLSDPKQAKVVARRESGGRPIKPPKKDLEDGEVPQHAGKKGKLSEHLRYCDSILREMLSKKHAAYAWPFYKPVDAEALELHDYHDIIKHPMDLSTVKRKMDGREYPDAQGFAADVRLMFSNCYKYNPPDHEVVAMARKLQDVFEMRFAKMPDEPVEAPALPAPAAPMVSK

Compound	IC50 (Bromodomain BRD2 (1-473)) [nM]	IC50 (Bromodomain BRD3 (1-435)) [nM]	IC50 (Bromodomain BRD4 (1-477)) [nM]	IC50 [1] [nM]
CC(=O)N1c2ccc(-c3ccc(C(=O)OCCN(C)C)cc3)cc2[C@H](Nc2ccc(Cl)cc2)C[C@@H]1C [Example 1, 2-(Dimethylamino)ethyl 4-((2S,4R)-1-acetyl-4-((4-chlorophenyl)amino)-2-methyl-1,2,3,4-tetrahydroquinolin-6-yl)benzoate hydrochloride]	63.1 to 501	63.1 to 501	63.1 to 501	200 to 3160
CC(=O)N1c2ccc(-c3ccc(C(=O)OCC[N+](C)(C)C)cc3)cc2[C@H](Nc2ccc(Cl)cc2)C[C@@H]1C [Example 2, 2-((4-((2S,4R)-1-Acetyl-4-((4-chlorophenyl)amino)-2-methyl-1,2,3,4-tetrahydroquinolin-6-yl)benzoyl)oxy)-N,N,N-trimethylethanaminium, formate]	63.1 to 501	63.1 to 501	63.1 to 501	200 to 3160
CC(=O)N1c2ccc(-c3ccc(C(=O)OCCC[N+](C)(C)C)cc3)cc2[C@H](Nc2ccc(Cl)cc2)C[C@@H]1C [Example 3, 3-((4-((2S,4R)-1-Acetyl-4-((4-chlorophenyl)amino)-2-methyl-1,2,3,4-tetrahydroquinolin-6-yl)benzoyl)oxy)-N,N,N-trimethylpropan-1-aminium, formate]	63.1 to 501	63.1 to 501	63.1 to 501	200 to 3160
CC(=O)N1c2ccc(-c3ccc(C(=O)OCCCN(C)C)cc3)cc2[C@H](Nc2ccc(Cl)cc2)C[C@@H]1C [Example 4, 3-(Dimethylamino)propyl 4-((2S,4R)-1-acetyl-4-((4-chlorophenyl)amino)-2-methyl-1,2,3,4-tetrahydroquinolin-6-yl)benzoate]	63.1 to 501	63.1 to 501	63.1 to 501	
CC(=O)N1c2ccc(-c3ccc(C(=O)OCCCN(C)C)cn3)cc2[C@H](Nc2ccc(C#N)cn2)C[C@@H]1C [Example 5, 3-(Dimethylamino)propyl 6-((2S,4R)-1-acetyl-4-((5-cyanopyridin-2-yl)amino)-2-methyl-1,2,3,4-tetrahydroquinolin-6-yl)nicotinate]	63.1 to 501	63.1 to 501	63.1 to 501	200 to 3160
CC(=O)N1c2ccc(-c3ccc(C(=O)OCCN(C)C)cn3)cc2[C@H](Nc2ccc(C#N)cn2)C[C@@H]1C [Example 6, 2-(Dimethylamino)ethyl 6-((2S,4R)-1-acetyl-4-((5-cyanopyridin-2-yl)amino)-2-methyl-1,2,3,4-tetrahydroquinolin-6-yl)nicotinate]	63.1 to 501	63.1 to 501	63.1 to 501	200 to 3160
CC(=O)N1c2ccc(-c3ccc(C(=O)OCCCN(C)C)cc3)cc2[C@H](NC(=O)OC(C)C)C[C@@H]1C [Example 7, 3-(Dimethylamino)propyl 4-((2S,4R)-1-acetyl-4-((isopropoxycarbonyl)amino)-2-methyl-1,2,3,4-tetrahydroquinolin-6-yl)benzoate]	63.1 to 501	63.1 to 501	63.1 to 501	200 to 3160
CC(=O)N1c2ccc(-c3ccc(C(=O)OCCN(C)C)cc3)cc2[C@H](NC(=O)OC(C)C)C[C@@H]1C [Example 8, 2-(Dimethylamino)ethyl 4-((2S,4R)-1-acetyl-4-((isopropoxycarbonyl)amino)-2-methyl-1,2,3,4-tetrahydroquinolin-6-yl)benzoate]	63.1 to 501	63.1 to 501	63.1 to 501	200 to 3160
